Assay [1] deals with antigen-induced bronchoconstriction. The experiment in a line: In vivo screening procedure for SRS-A synthesis inhibitors in guinea pigs. Particulars: 10 mg/kg i.v., 1 minute prior to antigen challenge. The source says:
Paralyzed, artificially ventilated, actively sensitized guinea pigs are pretreated with indomethacin (to divert the flow of endogenous arachidonic acid through the lipoxygenase pathway), pyrilamine maleate (to block any bronchoconstriction due to released histamine) and propranol (to enhance the sensitivity of the guinea pig bronchoconstriction to SRS-A) prior to challenging the animal with antigen. Under these conditions the resulting antigen-induced bronchoconstriction has been characterized as being attributable to the synthesis and release of SRS-A in the guinea pig lung. Test compounds are initially studies for their inhibitory properties in this test system by the intravenous route (at 10 mg/kg) given 1 minute prior to antigen challenge.

A further assay concerns the target T1, TXA2 synthase (Homo sapiens, UniProt P24557).
T1 construct: using microsomal fractions from human platelets as enzyme source; from tissue; host or cells: human platelets (microsomal fraction)
T1 sequence (P24557 1-533): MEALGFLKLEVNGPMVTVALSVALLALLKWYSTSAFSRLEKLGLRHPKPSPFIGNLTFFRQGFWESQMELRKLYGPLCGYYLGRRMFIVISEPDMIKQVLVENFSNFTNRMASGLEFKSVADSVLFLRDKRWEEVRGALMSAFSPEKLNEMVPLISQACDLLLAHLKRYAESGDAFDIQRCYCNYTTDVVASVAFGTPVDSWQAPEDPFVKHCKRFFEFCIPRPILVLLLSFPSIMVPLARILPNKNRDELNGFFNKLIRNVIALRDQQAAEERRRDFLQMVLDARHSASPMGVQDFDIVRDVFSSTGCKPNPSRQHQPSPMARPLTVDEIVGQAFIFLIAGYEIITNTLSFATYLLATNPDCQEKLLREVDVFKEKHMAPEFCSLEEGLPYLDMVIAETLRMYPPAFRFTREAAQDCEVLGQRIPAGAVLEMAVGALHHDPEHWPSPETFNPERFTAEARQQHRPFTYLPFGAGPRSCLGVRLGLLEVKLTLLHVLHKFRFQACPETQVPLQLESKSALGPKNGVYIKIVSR
The experiment in a line: Thromboxane synthase inhibition, in vitro. It counts as biochemical. Particulars: at 10^-7M; microsomal fractions from human platelets; read-out: TXA2Synthase Inhibition (% at 10^-7M). As to the method:
TXA2 synthase activity is measured by following the conversion of ^14C-prostaglandin endoperoxide (PGH2) to ^14C-thromboxane A2 (TXA2) using microsomal fractions from human platelets as enzyme source. In the aqueous incubation medium, the TXA2 decomposes rapidly into TXB2. The amount of TXA2 synthase is adjusted so that under the conditions of the assay approximately 80-90% of the substrate, PGH2, is converted to product in control tubes. To prepare ^14C-PGH2, ^14C-AA (50-60 mCi/mmole: Rose Chem.) is incubated with sheep seminal vesicular gland microsomes for 1.5 minutes at 37°C and then the ^14C-PGH2 is extracted with diethylether, purified on columns of Sephadex LH-20 or silicic acid, and stored in acetone at -70°C. Incubations are done as follows. Sufficient ^14C-PGH2 to yield a final substrate concentration of 10 µM (30,000 cpm) is added to the incubation tubes and then the acetone is removed under nitrogen. The tubes are placed in an ice bath and then 215 1 of ice cold phosphate buffered saline, 10 1 of ethanol (control) or of test drug in ethanol, and 25 1 of the microsomal suspension are added with mixing in that order as rapidly as possible. The tubes are incubated at 22°C for 2 minutes, the reaction is stopped and then the radioactive products and the uncoverted PGH2 are extracted and analyzed by thin layer chromatography. […] The amount of ^14C-PGH2 converted to products was used as a measure of TXA2 synthase activity. Inhibitors were tested initially at a final concentration of 100 µM. Results obtained with representative compounds of the present invention in this assay are summarized hereafter in Table I.

In the case of `CC(C)c1ccc2nc3sc(C(=O)NCCCCc4ccccn4)cn3c(=O)c2c1` [Example 11], the “inhibition of the bronchoconstriction” value in assay [1] worked out at 44%.

For the compound `CC(C)c1ccc2nc3sc(C(=O)NCCCCc4cccnc4)cn3c(=O)c2c1` [the 1st table, row 4, 7-(1-Methylethyl)-5-oxo-N-[4-(3-pyridinyl)butyl]-5H-thiazolo[2,3-b]quinazoline-2-carboxamide], the inhibition at 0.1 µM on TXA2 synthase was 73%.

With `CC(C)c1cc(C(C)C)c2nc3sc(C(=O)NCCCCc4cccnc4)cn3c(=O)c2c1` [the 1st table, row 5, 7,9-bis(1-methylethyl)-5-oxo-N-[4-(3-pyridinyl)butyl]-5H-thiazolo[2,3-b]quinazoline-2-carboxamide], the inhibition at 0.1 µM at TXA2 synthase stood at 63%.

On to `CC(C)c1ccc2nc3sc(C(=O)NCCCCn4ccnc4)cn3c(=O)c2c1` [the 1st table, row 8], for which the inhibition at 0.1 µM on TXA2 synthase was 67%.

Broadly, the inhibition is the change of the read-out against control, counted positive when it falls.

For the origin of these results see patent EP0142057A2, “Thiazoloquinazoline derivatives, their preparation and pharmaceutical compositions containing same” (F. HOFFMANN-LA ROCHE AG, priority 1983, dated 1985).
